Assay results: patent US20190328828A1, “PHARMACEUTICAL COMPOSITION, PROCESS FOR PRODUCING THE SAME, USE OF A PEPTIDE, USE OF A PHARMACEUTICAL COMPOSITION AND METHOD FOR TREATING DISEASES ASSOCIATED WITH INTRAOCULAR HYPERTENSION OR GLAUCOMA” (UNIAO QUIMICA FARMACEUTICA NACIONAL S/A, priority 2017, published 2019)

What was measured:
[1] = Protocol: The absorption and biological stability tests were performed with solutions of the peptide-cyclodextrin inclusion compound. To carry out the experiments, 12 normal Wistar rats were used, which had previously cannulated the left femoral artery. […] Four blood draws (1 mL) were carried out, being the first prior to gavage, and the three others within 2, 6 and 24 hours after gavage
[2] = Long-term and accelerated stability study of raw material; assay type: physicochemical
Protocol: Stability is defined as the time during which pharmaceutical expertise or even raw material considered alone is maintained within specified limits and throughout the period of storage and use, the same conditions and characteristics that had upon the time of their manufacture.
Stability study was carried out in two conditions, the condition A being at 5° C.±3° C. with no humidity and condition B 25° C.±2° C. with the relative humidity of 60%±5%.

ACE = ACE (Homo sapiens, UniProt P12821); details: read-out: IC50 for inhibiting ACE; cited from earlier work
Sequence of ACE (P12821 30-1306, species assumed): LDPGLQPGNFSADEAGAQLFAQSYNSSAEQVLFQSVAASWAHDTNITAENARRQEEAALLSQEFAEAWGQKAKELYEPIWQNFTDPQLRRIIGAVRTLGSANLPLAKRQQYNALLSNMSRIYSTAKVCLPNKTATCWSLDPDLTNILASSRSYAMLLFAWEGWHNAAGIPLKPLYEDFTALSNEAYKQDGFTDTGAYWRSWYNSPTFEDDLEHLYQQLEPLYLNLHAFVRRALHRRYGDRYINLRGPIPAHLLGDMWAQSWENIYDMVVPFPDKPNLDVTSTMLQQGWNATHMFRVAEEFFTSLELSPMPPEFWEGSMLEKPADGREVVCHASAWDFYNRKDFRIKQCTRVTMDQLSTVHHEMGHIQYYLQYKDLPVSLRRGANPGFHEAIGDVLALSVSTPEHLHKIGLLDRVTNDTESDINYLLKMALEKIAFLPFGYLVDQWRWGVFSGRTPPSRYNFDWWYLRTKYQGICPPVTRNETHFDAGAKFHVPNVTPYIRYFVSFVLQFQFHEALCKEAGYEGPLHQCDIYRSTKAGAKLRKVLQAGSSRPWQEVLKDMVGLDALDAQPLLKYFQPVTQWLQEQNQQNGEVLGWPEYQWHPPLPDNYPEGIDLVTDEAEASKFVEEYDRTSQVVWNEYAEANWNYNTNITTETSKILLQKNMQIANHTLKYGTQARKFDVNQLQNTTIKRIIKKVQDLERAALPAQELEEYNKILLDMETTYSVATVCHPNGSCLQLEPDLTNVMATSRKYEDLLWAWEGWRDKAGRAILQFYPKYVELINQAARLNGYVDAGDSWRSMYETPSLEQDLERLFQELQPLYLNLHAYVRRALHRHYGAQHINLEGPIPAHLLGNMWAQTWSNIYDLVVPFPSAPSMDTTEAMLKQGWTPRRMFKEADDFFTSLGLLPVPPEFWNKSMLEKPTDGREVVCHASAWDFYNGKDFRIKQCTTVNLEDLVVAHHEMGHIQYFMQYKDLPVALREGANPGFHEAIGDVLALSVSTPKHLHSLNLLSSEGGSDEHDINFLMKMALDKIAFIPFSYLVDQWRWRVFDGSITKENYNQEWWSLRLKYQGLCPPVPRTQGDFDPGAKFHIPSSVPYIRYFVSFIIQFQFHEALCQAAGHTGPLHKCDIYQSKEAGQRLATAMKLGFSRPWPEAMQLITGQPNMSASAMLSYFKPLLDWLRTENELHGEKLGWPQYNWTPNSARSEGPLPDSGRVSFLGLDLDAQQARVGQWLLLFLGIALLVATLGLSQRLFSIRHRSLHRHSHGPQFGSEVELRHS

rats = details: free (non-encapsulated) peptide, RVLB microinjection, 25-50 ng, previous studies; cited from earlier work
patients = patients treated chronically; cited from earlier work
ganglion cells = details: rat retina explant model, White et al (2015); cited from earlier work

Molecule: CC[C@H](C)[C@H](NC(=O)[C@H](Cc1ccc(O)cc1)NC(=O)[C@@H](NC(=O)[C@H](CCCNC(=N)N)NC(=O)[C@@H](N)CC(=O)O)C(C)C)C(=O)N[C@@H](Cc1c[nH]cn1)C(=O)N1CCC[C@H]1C(=O)O [SEQ ID NO: 1, Asp-Arg-Val-Tyr-Ile-His-Pro]
- increase in plasma concentration, times less than with SEQ ID NO: 1 βcyclodextrin ([1]; 6 hours after gavage): about 8 times
- level at 6 h ([1]; rat, in vivo, po, 10 ug/50 ul): 0.086 ± 0.013 ng/mL
- time for which the raw material is stable, long-term condition ([2]; 5° C.±3° C., no humidity): 36 months
- time for which the raw material is stable, accelerated condition ([2]; 25° C.±2° C., 60% relative humidity): 6 months
- IC50 (ACE): ~1000 nM
- duration of pressor effect (rats): approximately 10 min
- increase in arterial pressure (rats): 15 mmHg

Molecule: CCOC(=O)[C@H](CCc1ccccc1)N[C@@H](C)C(=O)N1CCC[C@H]1C(=O)O [enalapril]
- reduction of the risk of dementia (patients): 55%

Molecule: CCCCC1=NC2(CCCC2)C(=O)N1Cc1ccc(-c2ccccc2-c2nnn[nH]2)cc1 [irbesartan]
- survival of ganglion cells (ganglion cells): doubled

Molecule: CCC[C@H](N[C@@H](C)C(=O)N1[C@H](C(=O)O)C[C@@H]2CCCC[C@@H]21)C(=O)OCC [perindopril]
- reduction of the risk of dementia (patients): 34%

Molecule: Angiotensin II
- reduction of survival of ganglion cells (ganglion cells): 40%
